According to patent publication US7091024B2, “Enzyme PDE XVI” (Pfizer Inc., priority 1999, dated 2006):
Several values for one entry are separate records, joined by “and”; a condition that tells them apart may be missing. Identical values can stand only once.

Columns and labels:
[1] = biological target: T1, PDE_XIV (Homo sapiens, UniProt Q9NP56); assay: Phosphodiesterase inhibition studies on purified expressed PDE_XIV (cAMP SPA); type: biochemical; details: for IC50: N = 2, read-out: IC50 FOR PDEXIV (μM) (N = 2)
T1 construct: made in house; host or cells: Sf9 insect cells (baculovirus, pFASTBAC-FLAG)
T1 sequence (Q9NP56 whole entry): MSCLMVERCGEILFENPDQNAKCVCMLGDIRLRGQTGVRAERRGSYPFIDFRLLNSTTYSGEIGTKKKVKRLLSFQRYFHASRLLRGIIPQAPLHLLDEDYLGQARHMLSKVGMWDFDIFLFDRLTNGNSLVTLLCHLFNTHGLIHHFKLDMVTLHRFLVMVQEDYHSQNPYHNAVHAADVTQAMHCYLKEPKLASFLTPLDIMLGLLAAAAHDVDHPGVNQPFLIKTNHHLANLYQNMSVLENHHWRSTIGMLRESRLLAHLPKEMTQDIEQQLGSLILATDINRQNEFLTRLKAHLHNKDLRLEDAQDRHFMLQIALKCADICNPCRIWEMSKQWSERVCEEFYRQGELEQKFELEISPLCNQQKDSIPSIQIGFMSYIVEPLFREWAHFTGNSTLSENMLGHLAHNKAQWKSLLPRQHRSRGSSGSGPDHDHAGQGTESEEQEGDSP
Description: This allows the specific retention on the column of the recombinant material (since this is fused to the FLAG epitope) whilst the endogenous insect proteins are washed off in the eluate. The recombinant material is then washed off under conditions of low pH. […] The purity of the material is assessed by coomassie staining after sodium dodecyl sulphate-polyacrylamide gel electrophoresis (SDS-PAGE) or through western blotting onto a nitro-cellulose membrane of an unstained SDS-PAGE (containing recombinant PDE) and analysis with the IgG1 monoclonal anti-FLAG epitope antibody. The PDE-FLAG fusion protein is detected due to the interaction between the anti-FLAG antibody and the FLAG epitope which is fused to the PDE protein. The phosphodiesterase activity of the purified PDE-FLAG fusion protein was assayed using a commercially available SPA (scintillation proximity assay) kit (Amersham-Amersham place, Little Chalfont, Bucks, HP7 9NA UK) for either cAMP and/or cGMP hydrolytic activity.

[2] = biological target: T1, PDE_XIV; assay: cAMP Scintillation Proximity Assays on purified expressed PDE_XIV (substrate hydrolysis); type: biochemical

Row | Compound | sensitivity of PDE_XIV to the PDE inhibitor [1] | IC50 [1] | activity of PDE_XIV against the cyclic nucleotide [2]
1 | COc1ccc([C@]2(C#N)CC[C@@H](C(=O)O)CC2)cc1OC1CCCC1 [Ariflo] | not to be sensitive | > 30 µM | –
2 | Cc1[nH]c(=O)c(C#N)cc1-c1ccncc1 [Milrinone] | not to be sensitive | > 30 µM | –

The next lines start with the values.

Row | sensitivity of PDE_XIV to the PDE inhibitor [1] | IC50 [1] | activity of PDE_XIV against the cyclic nucleotide [2] | Compound
3 | – | 10.7 µM | – | OCCN(CCO)c1nc(N2CCCCC2)c2nc(N(CCO)CCO)nc(N3CCCCC3)c2n1 [Dipyridamole]
4 | – | 9.32 µM and 9.72 µM | – | CC(C)Cn1c(=O)n(C)c(=O)c2[nH]cnc21 [IBMX]
5 | not to be sensitive | > 30 µM | – | COc1ccc(C2CNC(=O)C2)cc1OC1CCCC1 (stereo not drawn) [Rolipram]
6 | – | – | no activity | Nc1nc2c(ncn2[C@@H]2O[C@@H]3COP(=O)(O)O[C@H]3[C@H]2O)c(=O)[nH]1 [cGMP]
